Results from ChEMBL document CHEMBL1201862, “PubChem BioAssay data set” (2004).
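96-well plates; 48 h exposure; 5 concentrations. Endpoints by linear interpolation between flanking doses. Not reached: highest tested concentration assigned. The concentration for 50% growth inhibition is given as GI50.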 Active and inactive are the calls of the source. No stated cut-off is given here; in the data, active = GI50 up to about 1.1 µM and inactive = higher.

Tests used:
Assay in all cases: growth of human tumour cells (NCI), 48 h
[1] = system: NCI-H522
[2] = system: BT-549
[3] = system: IGROV-1
[4] = system: SK-MEL-2
[5] = system: MOLT-4
[6] = system: K562
[7] = system: SNB-19
[8] = system: 786-0
[9] = system: RPMI-8226
[10] = system: OVCAR-4
[11] = system: OVCAR-3
[12] = system: RXF 393
[13] = system: MDA-MB-435
[14] = system: SF-268
[15] = system: A549
[16] = system: CCRF-CEM
[17] = system: NCI-H23
[18] = system: SNB-75
[19] = system: M14
[20] = system: MCF7
[21] = system: SF-539
[22] = system: HT-29
[23] = system: DU-145
[24] = system: NCI-H460
[25] = system: Hs-578T
[26] = system: UACC-62
[27] = system: HCC 2998
[28] = system: COLO 205
[29] = system: ACHN
[30] = system: SR
[31] = system: TK-10
[32] = system: SK-MEL-5
[33] = system: HOP-62
[34] = system: SW-620
[35] = system: OVCAR-5
[36] = system: CAKI-1
[37] = system: OVCAR-8
[38] = system: UACC-257
[39] = system: HOP-92
[40] = system: T47D
[41] = system: SF-295
[42] = system: HCT-15
[43] = system: NCI/ADR-RES
[44] = system: HCT-116
[45] = system: SK-MEL-28
[46] = system: EKVX
[47] = system: NCI-H226
[48] = system: PC-3
[49] = system: KM12
[50] = system: UO-31
[51] = system: U-251
[52] = system: MDA-MB-231
[53] = system: SN12C
[54] = system: HL-60
[55] = system: SK-OV-3

Compound: COc1ccc(NC(=O)CC(=O)N2N=C(N3c4ccccc4Sc4ccccc43)CC2c2ccccc2)cc1 (stereo not given)
- GI50 [1]: > 100 µM (inactive)
- GI50 [2]: > 100 µM (inactive)
- GI50 [3]: > 100 µM (inactive)
- GI50 [4]: > 100 µM (inactive)
- GI50 [5]: > 100 µM (inactive)
- GI50 [6]: > 100 µM (inactive)
- GI50 [7]: > 100 µM (inactive)
- GI50 [8]: > 100 µM (inactive)
- GI50 [9]: > 100 µM (inactive)
- GI50 [10]: > 100 µM (inactive)
- GI50 [11]: > 100 µM (inactive)
- GI50 [12]: > 100 µM (inactive)
- GI50 [13]: > 100 µM (inactive)
- GI50 [14]: 23.4 µM (inactive)
- GI50 [15]: > 100 µM (inactive)
- GI50 [16]: > 100 µM (inactive)
- GI50 [17]: > 100 µM (inactive)
- GI50 [18]: 47.6 µM (inactive)
- GI50 [19]: > 100 µM (inactive)
- GI50 [20]: > 100 µM (inactive)
- GI50 [21]: > 100 µM (inactive)
- GI50 [22]: > 100 µM (inactive)
- GI50 [23]: > 100 µM (inactive)
- GI50 [24]: > 100 µM (inactive)
- GI50 [25]: 39.7 µM (inactive)
- GI50 [26]: > 100 µM (inactive)
- GI50 [27]: > 100 µM (inactive)
- GI50 [28]: > 100 µM (inactive)
- GI50 [29]: > 100 µM (inactive)
- GI50 [30]: > 100 µM (inactive)
- GI50 [31]: > 100 µM (inactive)
- GI50 [32]: > 100 µM (inactive)
- GI50 [33]: > 100 µM (inactive)
- GI50 [34]: > 100 µM (inactive)
- GI50 [35]: > 100 µM (inactive)
- GI50 [36]: > 100 µM (inactive)
- GI50 [37]: > 100 µM (inactive)
- GI50 [38]: > 100 µM (inactive)
- GI50 [39]: > 100 µM (inactive)
- GI50 [40]: > 100 µM (inactive)
- GI50 [41]: > 100 µM (inactive)
- GI50 [42]: > 100 µM
- GI50 [43]: > 100 µM (inactive)
- GI50 [44]: > 100 µM (inactive)
- GI50 [45]: > 100 µM (inactive)
- GI50 [46]: > 100 µM (inactive)
- GI50 [47]: > 100 µM (inactive)
- GI50 [48]: > 100 µM (inactive)
- GI50 [49]: > 100 µM (inactive)
- GI50 [50]: > 100 µM (inactive)
- GI50 [51]: > 100 µM (inactive)
- GI50 [52]: > 100 µM (inactive)
- GI50 [53]: > 100 µM (inactive)
- GI50 [54]: > 100 µM (inactive)
- GI50 [55]: > 100 µM (inactive)
